Tests used:
[1] = Water solubility at 25° C. of zoledronic acid-HPβCD complexes and zoledronic acid monohydrate; format: physicochemical
Text: Solubility data of Examples 1-5 and Zoledronic Acid Monohydrate

[2] = cited from earlier work
[3] = cited from earlier work; remark: listed apart in the source

**Q.** With `O=P(O)(O)C(O)(Cn1ccnc1)P(=O)(O)O` [Zoledronic acid monohydrate, zoledronic acid monohydrate] as the compound, how does the solubility [1] read?
**A.** Its solubility is less than 7000 µg/mL.

**Q.** Which results are given for hydroxypropyl-β-cyclodextrin [HPβCD]?
**A.** adverse effects in human studies [2]: no adverse effects are observed; solubility in water ([3]; room temperature): greater than 500 mg/ml

**Q.** With `O=P(O)(O)C(O)(Cn1ccnc1)P(=O)(O)O` [zoledronic acid] as the compound, how does the “water solubility (in words)” value [3] read?
**A.** Its value is “sparingly water-soluble”.

From patent US20090023683A1, “COMPLEXES COMPRISING ZOLEDRONIC ACID AND CYCLODEXTRINS” (priority 2007, published 2009)
